According to patent US20260200890A1, “ADAR1 INHIBITORS AND METHODS OF USING THE SAME” (AVAMMUNE THERAPEUTICS INC., priority 2022, published 2026):

Columns and labels:
ADAR1 = molecular target: T1, ADAR1 (Homo sapiens, UniProt P55265); assay: ADAR1 Inhibition Assay (IFN fold-induction, Quanti-Luc luminescence, p110 KO A549 dual cells); format: cell-based; settings: IFN fold-induction vs DMSO, 24 and 48 h
T1 construct: endogenous in cells; host or cells: p110 KO A549 dual cells
T1 sequence (P55265 1-1226): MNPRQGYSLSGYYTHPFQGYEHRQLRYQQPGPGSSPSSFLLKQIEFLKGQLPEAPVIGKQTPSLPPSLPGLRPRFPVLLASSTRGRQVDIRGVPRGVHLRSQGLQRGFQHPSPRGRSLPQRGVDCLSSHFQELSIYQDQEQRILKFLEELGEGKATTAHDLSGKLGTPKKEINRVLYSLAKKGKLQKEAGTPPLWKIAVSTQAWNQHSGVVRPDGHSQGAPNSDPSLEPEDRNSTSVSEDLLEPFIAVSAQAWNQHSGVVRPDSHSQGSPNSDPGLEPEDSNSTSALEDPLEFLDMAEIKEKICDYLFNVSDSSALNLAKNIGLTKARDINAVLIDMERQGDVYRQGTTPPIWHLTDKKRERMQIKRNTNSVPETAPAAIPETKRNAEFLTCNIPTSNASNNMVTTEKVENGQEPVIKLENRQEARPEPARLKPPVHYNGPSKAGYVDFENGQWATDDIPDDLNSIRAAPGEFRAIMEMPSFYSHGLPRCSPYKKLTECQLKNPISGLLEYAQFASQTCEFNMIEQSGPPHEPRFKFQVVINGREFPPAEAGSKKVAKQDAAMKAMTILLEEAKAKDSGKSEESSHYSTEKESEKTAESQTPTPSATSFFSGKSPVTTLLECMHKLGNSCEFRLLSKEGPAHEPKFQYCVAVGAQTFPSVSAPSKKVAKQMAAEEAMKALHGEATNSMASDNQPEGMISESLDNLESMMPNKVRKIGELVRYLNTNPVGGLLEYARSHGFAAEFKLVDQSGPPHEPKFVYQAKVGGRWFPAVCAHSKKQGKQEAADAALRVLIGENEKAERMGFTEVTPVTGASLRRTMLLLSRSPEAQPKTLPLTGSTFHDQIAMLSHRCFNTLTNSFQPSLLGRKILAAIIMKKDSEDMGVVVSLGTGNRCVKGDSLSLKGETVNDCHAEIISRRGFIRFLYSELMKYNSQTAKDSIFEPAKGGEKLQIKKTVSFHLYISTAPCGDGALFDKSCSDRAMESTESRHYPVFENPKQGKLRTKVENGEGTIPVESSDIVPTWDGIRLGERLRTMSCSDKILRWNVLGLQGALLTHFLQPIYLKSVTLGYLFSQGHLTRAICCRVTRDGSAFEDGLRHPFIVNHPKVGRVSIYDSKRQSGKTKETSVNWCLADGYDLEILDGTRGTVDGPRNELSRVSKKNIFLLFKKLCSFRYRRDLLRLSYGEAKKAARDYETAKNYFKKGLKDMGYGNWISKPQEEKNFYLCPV
How it was run: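 EC50 derived from IFN fold-induction, calculated as sample RLU over average DMSO RLU. Luminescence measured by Quanti-Luc on samples taken after 24 and 48 h of compound exposure (1% DMSO final, 37 °C, 5% CO2). Cells were p110 KO A549 dual, seeded at 20,000 per well in supplemented DMEM.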

Zα domain of ADAR1 p150 = molecular target: T2, Zα domain of ADAR1 p150 (Homo sapiens, UniProt P55265); assay: SPR binding assay; settings: 6× his tag Zα domain immobilized on CM5 chip, analyte 0-25 μM
T2 construct: 10 μg/ml of Zα domain of ADAR1 was immobilized on CM5 chip using anti-HIS antibody; made in house
T2 sequence (P55265 133-199 limits assumed): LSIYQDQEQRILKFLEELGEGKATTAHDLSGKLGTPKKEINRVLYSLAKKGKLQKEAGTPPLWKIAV
Procedure: 6× his tag Za domain of ADAR1 p150 was purified using bacterial purification system. Protein was isolated from supernatant of cell lysate using Ni-NTA resin. For binding assay using SPR, 10 μg/ml of Zα domain of ADAR1 was immobilized on CM5 chip using anti-HIS antibody. Binding was quantified using the following condition below: • Analyte: 25, 12.5, 6.25, 3.125, 1.56, 0.78, 0 μM • Contact time—60 seconds, • Dissociation time—320 seconds • Flow rate—30 μL/minute Running buffer-PBSP+5% DMSO • After curve fitting, Kd values for synthesized compounds was quantified using the instrument software.

Row | SMILES | EC50 (ADAR1) [µM] | Kd (Zα domain of ADAR1 p150) [µM]
1 | CCOC(=O)c1cc(-c2ccccc2)sc1NC(=O)CNC(=O)Cc1cccc(OC(F)(F)F)c1 [Compound 328] | > 100 | ≤ 1
2 | CS(=O)(=O)Nc1cccc(C(=O)OCC(=O)Nc2sc(-c3ccccc3)cc2C#N)c1 [Compound 127] | > 100 | ≤ 1
3 | CCOC(=O)c1cc(-c2ccccc2)sc1NC(=O)CNC(=O)Cc1ccc(P(=O)(OCC)OCC)cc1 [Compound 402] | 50 to 100 | ≤ 1
4 | CCOC(=O)c1cc(-c2ccccc2)sc1NC(=O)COC(=O)c1ccc(F)c(NS(C)(=O)=O)c1 [Compound 137] | > 100 | > 25
5 | CCOC(=O)c1cc(-c2ccccc2)[nH]c1NC(=O)COC(=O)c1cccc(P(=O)(OCC)OCC)c1 [Compound 349] | > 100 | > 25
6 | CCOC(=O)c1cc(-c2ccccc2)sc1NC(=O)CN1C[C@H]2CC[C@@H](C1)N2S(C)(=O)=O [Compound 364] | > 100 | > 25
7 | CCOC(=O)c1cc(-c2ccccc2)sc1NC(=O)COC(=O)C1CCCC(NS(C)(=O)=O)C1 (stereo not drawn) [Compound 150] | > 100 | > 25
8 | CCOC(=O)c1cc(-c2ccccc2)sc1NC(=O)Cn1cnc(-c2cccc(NS(C)(=O)=O)c2)n1 [Compound 274] | > 100 | ≤ 1
9 | CCOC(=O)c1cc(-c2ccccc2)sc1NC(=O)CN(C)Cc1cccc(NS(C)(=O)=O)c1 [Compound 180] | > 100 | ≤ 1
10 | CCOC(=O)c1cc(-c2ccccc2)sc1NC(=O)c1ccc(-c2cccc(NS(C)(=O)=O)c2)nc1 [Compound 253] | > 100 | ≤ 1
11 | CCOC(=O)c1cc(-c2ccccc2)sc1NC(=O)COC(=O)c1ccc(P(=O)(OCC)OCC)cc1 [Compound 421] | > 100 | ≤ 1
12 | CCOC(=O)c1cc(-c2ccccc2)sc1NC(=O)C1CCN(C(=O)c2cccc(P(=O)(OCC)OCC)c2)C1 (stereo not drawn) [Compound 361] | 50 to 100 | > 25
13 | CCOC(=O)c1cc(-c2ccccc2)[nH]c1NC(=O)[C@@H]1CCN(C(=O)c2cccc(P(=O)(OC)OCC)c2)C1 (stereo partly drawn) [Compound 403] | 50 to 100 | > 25

Second part, the molecule after the results:

Row | EC50 (ADAR1) [µM] | Kd (Zα domain of ADAR1 p150) [µM] | SMILES
14 | > 100 | > 25 | CCOC(=O)c1cc(-c2ccccc2)[nH]c1NC(=O)CNC(=O)c1cccc(NS(C)(=O)=O)c1 [Compound 395]
15 | > 100 | ≤ 1 | CCOC(=O)c1cc(-c2ccccc2)[nH]c1NC(=O)COC(=O)c1cccc(P(=O)(O)O)c1 [Compound 355]
16 | > 100 | ≤ 1 | CCOC(=O)c1cc(-c2ccccc2)sc1NC(=O)Cn1cc(CNC(=O)c2cccc(P(=O)(O)O)c2)nn1 [Compound 409]
17 | > 100 | ≤ 1 | CCOC(=O)c1cc(-c2ccccc2)sc1NC(=O)[C@H]1CCCN1C(=O)c1cccc(P(=O)(O)O)c1 [Compound 414]
18 | > 100 | ≤ 1 | CCOC(=O)c1cc(-c2ccccc2)ncc1NC(=O)CNC(=O)Cc1cccc(NS(C)(=O)=O)c1 [Compound 387]
19 | > 100 | ≤ 1 | CCOC(=O)c1cc(-c2ccccc2)sc1NC(=O)COC(=O)c1ccc(P(=O)(O)O)cc1 [Compound 424]
20 | > 100 | ≤ 1 | CCOC(=O)c1cc(-c2ccccc2)sc1NC(=O)CNC(=O)Cc1cccc(Br)c1 [Compound 330]
21 | > 100 | ≤ 1 | CCOC(=O)c1cc(-c2ccccc2)sc1NC(=O)CNC(=O)Cc1ccc(Cl)c(NS(C)(=O)=O)c1 [Compound 366]
22 | > 100 | ≤ 1 | CCOC(=O)c1cc(-c2ccccc2)sc1NC(=O)Cn1cc(C(=O)Nc2cccc(P(=O)(O)O)c2)nn1 [Compound 420]
23 | > 100 | ≤ 1 | CCOC(=O)c1cc(N)nn1C(=O)COC(=O)c1cccc(NS(C)(=O)=O)c1 [Compound 346]
24 | > 100 | 1 to 10 | CCOC(=O)c1cc(-c2ccccc2)sc1-c1coc(CNc2cccc(NS(C)(=O)=O)c2)c1 [Compound 329]
